Patent US10268799B2, “Screening methods for thyroid hormone disruptors based on co-regulator involved simulations” (Nanjing University, priority 2016, dated 2019)
Entries after “also recorded” stand apart in the source; their conditions may differ.

Legend:
GH3 cells = assay: GH3 cell proliferation assay (anti-TH potency); assay type: cell-based, rat; settings: for −log RIC20 (relative anti-TH potency): RIC20 (mol/L) is 20% inhibition of proliferation of GH3 cells induced by 0.5 nM T3; for TH disrupting effect determined in GH3 proliferation assay: result in words
Procedure: The rat pituitary tumor cell line GH3 was cultured for determination of the relative TH disrupting potencies. […] Due to cytotoxicity, the other 3 HO-PBDEs were not tested for anti-TH potencies.

human TRα-LBD = target: T1, human TRα-LBD (Homo sapiens, UniProt P10827); assay: Competitive binding assay with Fluorescein-labeled T3 probe, human TRα; settings: result in words (FIG. 2A)
T1 sequence (P10827 163-410 isoform P10827-2): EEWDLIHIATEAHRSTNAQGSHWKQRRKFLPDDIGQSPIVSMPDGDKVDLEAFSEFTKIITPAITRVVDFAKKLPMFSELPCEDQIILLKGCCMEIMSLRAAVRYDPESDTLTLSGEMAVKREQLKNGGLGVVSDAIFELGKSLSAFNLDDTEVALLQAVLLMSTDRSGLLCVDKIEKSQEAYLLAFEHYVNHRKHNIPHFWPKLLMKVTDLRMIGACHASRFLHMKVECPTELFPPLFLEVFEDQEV

## Oc1c(Br)cc(Oc2ccc(Br)cc2Br)c(Br)c1Br [4-HO-BDE-90]
GH3 cells
  −log RIC20 (relative anti-TH potency): 7.59
  TH disrupting effect determined in GH3 proliferation assay: antagonists of the TR

## Oc1c(Oc2ccc(Br)cc2Br)ccc(Br)c1Br [2′-OH-BDE-66]
GH3 cells
  −log RIC20 (relative anti-TH potency): 7.09

## Oc1cccc(Br)c1Oc1ccc(Br)cc1Br [6′-HO-BDE-17]
GH3 cells
  −log RIC20 (relative anti-TH potency): 6.78

## Oc1cc(Br)c(Oc2cc(Br)c(Br)cc2Br)cc1Br [4′-HO-BDE-101]
GH3 cells
  −log RIC20 (relative anti-TH potency): 8.11

## Oc1c(Br)c(Br)c(Oc2c(Br)cc(Br)cc2Br)c(Br)c1Br [4-HO-BDE-188]
GH3 cells
  −log RIC20 (relative anti-TH potency): 8.42

## Oc1c(Br)cc(Br)c(Oc2ccc(Br)cc2Br)c1Br [3-HO-BDE-100]
GH3 cells
  −log RIC20 (relative anti-TH potency): 7.83
Human TRα-LBD
  binding affinity with TRα: greater affinities; also recorded: one of the strongest binding ligands

## Oc1c(Br)c(Br)c(Br)c(Br)c1Oc1ccc(Br)cc1Br [6-HO-BDE-137]
GH3 cells
  −log RIC20 (relative anti-TH potency): 8.03
  TH disrupting effect determined in GH3 proliferation assay: antagonists of the TR
Human TRα-LBD
  binding affinity with TRα: greater affinities

## Oc1cc(Br)c(Br)c(Br)c1Oc1cc(Br)c(Br)c(Br)c1 [6-HO-BDE-157]
GH3 cells
  −log RIC20 (relative anti-TH potency): 8.14

## Oc1c(Br)cc(Br)cc1Oc1ccc(Br)cc1Br [2′-OH-BDE-68]
GH3 cells
  −log RIC20 (relative anti-TH potency): 7.15

## Oc1c(Oc2ccc(Br)cc2Br)cc(Br)c(Br)c1Br [2-HO-BDE-123]
GH3 cells
  −log RIC20 (relative anti-TH potency): 7.44
  TH disrupting effect determined in GH3 proliferation assay: antagonists of the TR
Human TRα-LBD
  binding affinity with TRα: greater affinities

## Oc1ccc(Oc2ccc(Br)cc2Br)c(Br)c1 [4′-OH-BDE-17]
GH3 cells
  −log RIC20 (relative anti-TH potency): 6.51

## Oc1cc(Br)c(Oc2ccc(Br)cc2Br)cc1Br [4′-HO-BDE-49]
GH3 cells
  −log RIC20 (relative anti-TH potency): 7.30
Human TRα-LBD
  binding affinity with TRα: too weak to detect

## Oc1c(Br)cc(Br)c(Br)c1Oc1ccc(Br)cc1Br [6-HO-BDE-90]
GH3 cells
  −log RIC20 (relative anti-TH potency): 7.76
